Several values for one entry are separate records, joined by “and”; a condition that tells them apart may be missing. Equal entries are not always repeated. Inconclusive results and toxic doses are left out.
System: L1210 leukemia ip in BDF1 mice, survival T/C
Test: NCI In Vivo Anticancer Drug Screen. Data for tumor model L1210 Leukemia (intraperitoneal) in B6D2F1 (BDF1) mice
Conditions: endpoint: mean survival time, higher = longer survival
Outline: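 Ratio derived from survival: compound-dosed mice over vehicle-dosed mice, all bearing a transplantable tumor.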

[1] = dose: 100.0 mg/kg/injection, schedule: Q01DX001 (ip), vehicle: saline with Tween-80
[2] = dose: 100.0 mg/kg/injection, schedule: Q04DX002 (ip), vehicle: saline with Tween-80
[3] = dose: 100.0 mg/kg/injection, schedule: Q04DX003 (ip), vehicle: saline with Tween-80
[4] = dose: 200.0 mg/kg/injection, schedule: Q01DX001 (ip), vehicle: saline with Tween-80
[5] = dose: 200.0 mg/kg/injection, schedule: Q04DX003 (ip), vehicle: saline with Tween-80
[6] = dose: 400.0 mg/kg/injection, schedule: Q01DX001 (ip), vehicle: saline with Tween-80
[7] = dose: 400.0 mg/kg/injection, schedule: Q04DX002 (ip), vehicle: saline with Tween-80
[8] = dose: 400.0 mg/kg/injection, schedule: Q04DX003 (ip), vehicle: saline with Tween-80
[9] = dose: 100.0 mg/kg/injection, schedule: Q01DX001 (ip), vehicle: saline
[10] = dose: 200.0 mg/kg/injection, schedule: Q01DX001 (ip), vehicle: saline
[11] = dose: 400.0 mg/kg/injection, schedule: Q01DX001 (ip), vehicle: saline
[12] = dose: 100.0 mg/kg/injection, schedule: Q04DX002 (ip), vehicle: Klucel (hydroxypropylcellulose) (HPC)
[13] = dose: 200.0 mg/kg/injection, schedule: Q04DX002 (ip), vehicle: Klucel (hydroxypropylcellulose) (HPC)
[14] = dose: 100.0 mg/kg/injection, schedule: Q01DX009 (ip), vehicle: Klucel (hydroxypropylcellulose) (HPC)
[15] = dose: 200.0 mg/kg/injection, schedule: Q01DX009 (ip), vehicle: Klucel (hydroxypropylcellulose) (HPC)
[16] = dose: 75.0 mg/kg/injection, schedule: Q04DX003 (ip), vehicle: saline with Tween-80
[17] = dose: 150.0 mg/kg/injection, schedule: Q04DX003 (ip), vehicle: saline with Tween-80

SMILES: O=C(/C=C/c1ccccc1)NC(=S)Nc1ccccc1C(F)(F)F
- T/C (dose: 12.5 mg/kg/injection, schedule: Q01DX009 (ip), vehicle: saline with Tween-80): 93 % of control and 100 % of control
- T/C [1]: 92 % of control
- T/C [2]: 91 % of control
- T/C [3]: 103 % of control
- T/C [4]: 97 % of control
- T/C (dose: 200.0 mg/kg/injection, schedule: Q04DX002 (ip), vehicle: saline with Tween-80): 95 % of control and 101 % of control
- T/C [5]: 91 % of control
- T/C [6]: 112 % of control
- T/C (dose: 400.0 mg/kg/injection, schedule: Q01DX009 (ip), vehicle: saline with Tween-80): 86 % of control
- T/C [7]: 93 % of control and 95 % of control
- T/C [8]: 91 % of control

SMILES: CCNC(=NC)c1ccc(NC(=O)c2ccc(C(=O)Nc3ccc(C(=NC)NCC)cc3)cc2)cc1
- T/C (dose: 1.3 mg/kg/injection, schedule: Q01DX Z (ip), vehicle: carboxymethylcellulose (CMC)): 98 % of control
- T/C (dose: 1.9 mg/kg/injection, schedule: Q01DX Z (ip), vehicle: carboxymethylcellulose (CMC)): 96 % of control
- T/C (dose: 2.9 mg/kg/injection, schedule: Q01DX Z (ip), vehicle: carboxymethylcellulose (CMC)): 153 % of control
- T/C (dose: 4.4 mg/kg/injection, schedule: Q01DX Z (ip), vehicle: carboxymethylcellulose (CMC)): 119 % of control
- T/C (dose: 6.6 mg/kg/injection, schedule: Q01DX Z (ip), vehicle: carboxymethylcellulose (CMC)): 116 % of control
- T/C (dose: 10.0 mg/kg/injection, schedule: Q01DX Z (ip), vehicle: carboxymethylcellulose (CMC)): 110 % of control
- T/C (dose: 15.0 mg/kg/injection, schedule: Q01DX Z (ip), vehicle: carboxymethylcellulose (CMC)): 98 % of control

SMILES: O=P1(N(CCF)CCCl)NCCCO1 (stereo unspecified)
- T/C (dose: 10.0 mg/kg/injection, schedule: Q01DX Z (ip), vehicle: other): 94 % of control
- T/C (dose: 30.0 mg/kg/injection, schedule: Q01DX Z (ip), vehicle: other): 102 % of control

SMILES: CN1CCC=C(CN(c2ccccc2)c2ccccc2)C1
- T/C (dose: 25.0 mg/kg/injection, schedule: Q01DX009 (ip), vehicle: saline): 93 % of control
- T/C (dose: 25.0 mg/kg/injection, schedule: Q04DX003 (ip), vehicle: saline): 92 % of control
- T/C (dose: 50.0 mg/kg/injection, schedule: Q01DX009 (ip), vehicle: saline): 100 % of control
- T/C (dose: 50.0 mg/kg/injection, schedule: Q04DX003 (ip), vehicle: saline): 96 % of control
- T/C (dose: 100.0 mg/kg/injection, schedule: Q01DX009 (ip), vehicle: saline): 91 % of control
- T/C (dose: 100.0 mg/kg/injection, schedule: Q04DX003 (ip), vehicle: saline): 95 % of control

SMILES: COC1OC(CO)C(O)C(O)C1NC(C)=O (stereo unspecified)
- T/C [9]: 106 % of control
- T/C [10]: 103 % of control
- T/C [11]: 104 % of control

SMILES: O=C(O)COc1ccc(Cl)c2ccccc12
- T/C [12]: 96 % of control
- T/C [13]: 100 % of control

SMILES: CCCCCCCCC1OC1CCCCCCCC(=O)N1CCN(C)CC1 (stereo unspecified)
- T/C (dose: 75.0 mg/kg/injection, schedule: Q01DX001 (ip), vehicle: carboxymethylcellulose (CMC)): 92 % of control
- T/C (dose: 150.0 mg/kg/injection, schedule: Q01DX001 (ip), vehicle: carboxymethylcellulose (CMC)): 97 % of control
- T/C (dose: 300.0 mg/kg/injection, schedule: Q01DX001 (ip), vehicle: carboxymethylcellulose (CMC)): 91 % of control

SMILES: O=C(O)c1ccc(NCc2cccc([N+](=O)[O-])c2)cc1
- T/C (dose: 100.0 mg/kg/injection, schedule: Q01DX001 (ip), vehicle: Klucel (hydroxypropylcellulose) (HPC)): 100 % of control
- T/C [14]: 96 % of control
- T/C [12]: 100 % of control and 105 % of control
- T/C (dose: 100.0 mg/kg/injection, schedule: Q04DX003 (ip), vehicle: Klucel (hydroxypropylcellulose) (HPC)): 99 % of control
- T/C (dose: 200.0 mg/kg/injection, schedule: Q01DX001 (ip), vehicle: Klucel (hydroxypropylcellulose) (HPC)): 104 % of control
- T/C [15]: 106 % of control and 86 % of control
- T/C [13]: 101 % of control and 102 % of control
- T/C (dose: 200.0 mg/kg/injection, schedule: Q04DX003 (ip), vehicle: Klucel (hydroxypropylcellulose) (HPC)): 108 % of control
- T/C (dose: 400.0 mg/kg/injection, schedule: Q01DX001 (ip), vehicle: Klucel (hydroxypropylcellulose) (HPC)): 100 % of control
- T/C (dose: 400.0 mg/kg/injection, schedule: Q01DX009 (ip), vehicle: Klucel (hydroxypropylcellulose) (HPC)): 96 % of control and 98 % of control
- T/C (dose: 400.0 mg/kg/injection, schedule: Q04DX002 (ip), vehicle: Klucel (hydroxypropylcellulose) (HPC)): 99 % of control and 103 % of control
- T/C (dose: 400.0 mg/kg/injection, schedule: Q04DX003 (ip), vehicle: Klucel (hydroxypropylcellulose) (HPC)): 98 % of control

SMILES: CCCCSC1CC(=O)N(CCCC)C1=O (stereo unspecified)
- T/C [16]: 100 % of control
- T/C [1]: 103 % of control
- T/C [17]: 90 % of control
- T/C [4]: 98 % of control
- T/C (dose: 300.0 mg/kg/injection, schedule: Q04DX003 (ip), vehicle: saline with Tween-80): 92 % of control
- T/C [6]: 101 % of control

SMILES: CC(=O)C[n+]1ccccc1
- T/C [9]: 106 % of control and 97 % of control
- T/C (dose: 100.0 mg/kg/injection, schedule: Q01DX009 (ip), vehicle: acetone): 96 % of control
- T/C [10]: 100 % of control and 95 % of control
- T/C (dose: 200.0 mg/kg/injection, schedule: Q01DX009 (ip), vehicle: acetone): 105 % of control
- T/C [11]: 89 % of control and 97 % of control
- T/C (dose: 400.0 mg/kg/injection, schedule: Q01DX009 (ip), vehicle: acetone): 89 % of control

SMILES: c1ccc(-c2cc(-c3ccccc3)[nH]n2)cc1
- T/C [3]: 100 % of control
- T/C [5]: 110 % of control
- T/C [8]: 105 % of control

SMILES: O=NN(CCCl)C(=O)NC1CCSCC1
- T/C (dose: 0.5 mg/kg/injection, schedule: Q01DX001 (ip), vehicle: carboxymethylcellulose (CMC)): 104 % of control
- T/C (dose: 1.0 mg/kg/injection, schedule: Q01DX001 (ip), vehicle: carboxymethylcellulose (CMC)): 104 % of control
- T/C (dose: 4.0 mg/kg/injection, schedule: Q01DX001 (ip), vehicle: carboxymethylcellulose (CMC)): 179 % of control
- T/C (dose: 5.0 mg/kg/injection, schedule: Q01DX001 (ip), vehicle: carboxymethylcellulose (CMC)): 226 % of control
- T/C (dose: 6.0 mg/kg/injection, schedule: Q01DX001 (ip), vehicle: carboxymethylcellulose (CMC)): 203 % of control and 277 % of control
- T/C (dose: 8.0 mg/kg/injection, schedule: Q01DX001 (ip), vehicle: carboxymethylcellulose (CMC)): 290 % of control and 319 % of control and 322 % of control
- T/C (dose: 9.0 mg/kg/injection, schedule: Q01DX001 (ip), vehicle: carboxymethylcellulose (CMC)): 312 % of control
- T/C (dose: 12.0 mg/kg/injection, schedule: Q01DX001 (ip), vehicle: carboxymethylcellulose (CMC)): 319 % of control and 322 % of control
- T/C (dose: 14.0 mg/kg/injection, schedule: Q01DX001 (ip), vehicle: carboxymethylcellulose (CMC)): 312 % of control
- T/C (dose: 16.0 mg/kg/injection, schedule: Q01DX001 (ip), vehicle: carboxymethylcellulose (CMC)): 234 % of control
- T/C (dose: 18.0 mg/kg/injection, schedule: Q01DX001 (ip), vehicle: carboxymethylcellulose (CMC)): 158 % of control
- T/C (dose: 21.0 mg/kg/injection, schedule: Q01DX001 (ip), vehicle: carboxymethylcellulose (CMC)): 122 % of control
- T/C (dose: 24.0 mg/kg/injection, schedule: Q01DX001 (ip), vehicle: carboxymethylcellulose (CMC)): 90 % of control

SMILES: O=C(/C=C\c1ccc(Cl)c(Cl)c1)/C=C/c1ccc(Cl)c(Cl)c1
- T/C [2]: 92 % of control
- T/C [7]: 92 % of control

SMILES: NC(=S)N=Nc1c(O)n2c3c(cccc13)CCc1ccccc1-2
- T/C [3]: 92 % of control
- T/C [5]: 96 % of control
- T/C [8]: 94 % of control

SMILES: Cc1cccc(C)c1NC(=O)N1CCN(C)CC1
- T/C (dose: 25.0 mg/kg/injection, schedule: Q04DX002 (ip), vehicle: saline with Tween-80): 108 % of control
- T/C (dose: 50.0 mg/kg/injection, schedule: Q04DX002 (ip), vehicle: saline with Tween-80): 111 % of control
- T/C [14]: 108 % of control
- T/C [12]: 88 % of control
- T/C [2]: 101 % of control
- T/C [15]: 103 % of control

SMILES: CCCc1cc2c3c(c(=O)oc2cc1OCCN1CCCC1)CCCC3
- T/C (dose: 37.5 mg/kg/injection, schedule: Q01DX001 (ip), vehicle: saline with Tween-80): 92 % of control
- T/C (dose: 37.5 mg/kg/injection, schedule: Q04DX003 (ip), vehicle: saline with Tween-80): 96 % of control
- T/C (dose: 75.0 mg/kg/injection, schedule: Q01DX001 (ip), vehicle: saline with Tween-80): 94 % of control
- T/C [16]: 100 % of control
- T/C (dose: 150.0 mg/kg/injection, schedule: Q01DX001 (ip), vehicle: saline with Tween-80): 100 % of control
- T/C [17]: 98 % of control

Source: PubChem BioAssay AID248 (DTP/NCI, 2004)
